Measurements from US7855290B2, “Pyridine derivatives and pyrimidine derivatives (3)” (Eisai R&D Management Co., Ltd., priority 2005, dated 2010).

Experiments:
[1] = system: Human gastric cancer cells (MKN-45); experiment: Inhibitory activity against the proliferation of human gastric cancer cells (MKN-45); format: cell-based; conditions: 72 h, MKN-45, 1% FBS RPMI1640, 3 days, Cell Counting Kit-8
Protocol: Human gastric cancer cells (MKN-45) were suspended in a 1% FBS-containing RPMI1640 medium (purchased from Sigma). The cell suspension (1×10^4 cells/ml) was added in a 96-well plate for cell culture (purchased from NUNC, Production No. 167008) at 0.1 ml/well, and then cultured in a 5% CO2 incubator (37° C.) overnight. After the culture, each well was supplied with 0.1 ml of a test substance diluted with a 1% FBS-containing RPMI1640 medium, followed by culturing in a 5% CO2 incubator (37° C.) for 3 days. After the culture, each well was supplied with 10 μl of Cell Counting Kit-8 (purchased from DOJINDO, Production No. 343-07623), followed by incubation in a 5% CO2 incubator (37° C.) for about 1.5 hrs. After the incubation, using the Plate Reader MTP-500 (Corona Electric), the absorbance of each well was determined at a measurement wavelength of 450 nm and a reference wavelength of 660 nm.

[2] = biological target: T1, His6-HGFR (HGFR cytoplasmic domain) (Homo sapiens, UniProt P08581); experiment: Inhibitory activity against HGFR tyrosine kinase activity (HTRF); format: biochemical; conditions: biotin-poly(GT), ATP, 30° C. 10 min
T1 construct: made in house; host or cells: Sf9 insect cells (Spodoptera frugiperda), baculovirus, pFastBac-HT vector
T1 sequence (P08581 956-1390 limits assumed): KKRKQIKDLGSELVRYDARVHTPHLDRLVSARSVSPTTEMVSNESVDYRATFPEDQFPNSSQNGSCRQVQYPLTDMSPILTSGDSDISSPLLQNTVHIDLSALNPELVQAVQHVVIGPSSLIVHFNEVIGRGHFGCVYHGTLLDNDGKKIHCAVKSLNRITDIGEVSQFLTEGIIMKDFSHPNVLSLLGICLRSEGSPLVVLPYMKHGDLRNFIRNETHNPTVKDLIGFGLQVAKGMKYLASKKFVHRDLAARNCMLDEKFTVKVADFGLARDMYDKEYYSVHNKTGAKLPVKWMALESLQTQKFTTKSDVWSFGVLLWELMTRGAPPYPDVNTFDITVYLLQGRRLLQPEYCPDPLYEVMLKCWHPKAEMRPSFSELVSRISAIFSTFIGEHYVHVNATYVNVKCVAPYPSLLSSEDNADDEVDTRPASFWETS
Excerpt: The cytoplasmic domain of HGFR (Genbank Accession No. J02958) is a 1.3 kb DNA fragment beginning with Lys974 and including a stop codon, and described by Park et al. (Proc. Natl. Acad. Sci. U.S.A. 84(18), 6379-6383, 1987). The DNA fragment was isolated from the human placental cDNA library (purchased from Clontech) by PCR (TaKaRa Ex Taq™ Kit, purchased from TaKaRa) using two kinds of primers (SEQ ID NO: 1,5′-[…]-3′ and SEQ ID NO: 2,5′-[…]-3′, purchased from Invitrogen). The DNA fragment was cloned into a baculovirus transplace vector (pFastBac™-HT (purchased from GIBCO BRL)) to produce a recombinant construct. […] EGFR was purchased from Sigma (Production No. E-2645).
To the suspension of Sf9 cells (3×10^8 cells) in SF-900II medium (purchased from Invitrogen) containing 2% FBS was added a solution of HGFR transfected baculovirus above (4 ml), followed by a shaking culture at 27° C. for 48 hrs. The cells infected with the HGFR transfected baculovirus were centrifuged at 1,000 rpm, 4° C. for 5 min to remove the supernatant. The precipitated infected cells were suspended in 80 ml of ice-cold PBS, and centrifuged at 1,000 rpm, 4° C. for 5 min to remove the supernatant. The precipitated infected cells were suspended in 40 ml of ice-cold Lysis Buffer (50 mM Tris-HCl (pH 8.5), 5 mM 2-mercaptoethanol, 100 mM KCl, 1 mM PMSF and 1% (v/v) NP-40). The suspension was centrifuged at 12,000 rpm, 4° C. for 30 min to provide a supernatant.
The supernatant was loaded onto an Ni-NTA agarose column (3 ml, purchased from Qiagen) equilibrated with 30 ml of Buffer A (20 mM Tris-HCl (pH 8.5), 5 mM 2-mercaptoethanol, 500 mM KCl, 20 mM imidazole and 10% (v/v) glycerol). The column was washed with 30 ml of Buffer A, 6 ml of Buffer B (20 mM Tris-HCl (pH 8.5), 5 mM 2-mercaptoethanol, 1 M KCl, and 10% (v/v) glycerol) and 6 ml of Buffer A in this order. Then, the column was eluted with 6 ml of Buffer C (20 mM Tris-HCl (pH 8.5), 5 mM 2-mercaptoethanol, 100 mM KCl, 100 mM imidazole, and 10% (v/v) glycerol) to provide a fraction. The fraction was entrapped in a dialysis membrane (purchased from Spectrum Laboratories), dialyzed at 4° C. overnight with 1 L of dialysis buffer (20 mM Tris-HCl (pH 7.5), 10% (v/v) glycerol, 1 mM dithiothreitol, 0.1 mM Na3VO4 and 0.1 mM EGTA), and stored at −80° C. until used. […] The VEGFR2 cytoplasmic domain, the FGFR1 cytoplasmic domain, and the PDGFRβ cytoplasmic domain were fused with six histidine at the N terminus by the similar method to produce respective recombinant proteins (His6-VEGFR2, His6-FGFR1, and His6-PDGFRβ).
To each well of a 96-well round plate (purchased from NUNC, Production No. 163320) were added 10 μl of a solution for kinase reaction (200 mM Hepes (pH 7.4), 80 mM MgCl2, 16 mM MnCl2 and 2 mM Na3VO4), 250 ng of biotinylated poly(Glu4: Tyr1) (biotin-poly(GT), purchased from Japan Schering) (6 μl, 15-fold diluted with distilled water), 30 ng of His6-HGFR (10 μl, 60-fold diluted with 0.4% BSA) and a test substance dissolved in dimethylsulfoxide (4 μl, 100-fold diluted with 0.1% BSA) to mess up to 30 μl. To the well was added 10 μl of 4 μM ATP (purchased from Sigma) diluted with distilled water to incubate at 30° C. for 10 min, followed by adding 10 μl of 500 mM EDTA (pH 8.0) (purchased from Wako Pure Chemicals) to provide a kinase reaction solution.
The tyrosine-phosphorylated biotin-poly(GT) was detected using the Homogenous Time-Resolved Fluorescence (HTRF) method (Analytical Biochemistry, 269, 94-104, 1999).

| SMILES | IC50 [1] [nM] | IC50 [2] [nM] |
| --- | --- | --- |
| CN1CCC(N(C)C(=O)Nc2cc(Oc3ccc(NC(=O)C4(C(=O)Nc5ccc(F)cc5F)CC4)c(F)c3)ccn2)CC1 [Example 56, N-(2,4-Difluorophenyl)-N′-(2-fluoro-4-{[2-({[methyl(1-methylpiperidin-4-yl)amino]carbonyl}amino)pyridin-4-yl]oxy}phenyl)cyclopropane-1,1-dicarboxamide] | 53 | 110 |
| O=C(Nc1cc(Oc2ccc(NC(=O)C3(C(=O)Nc4ccc(F)cc4)CC3)c(F)c2)ccn1)N1CCC(N2CCC2)CC1 [Example 9, N-{4-[(2-{[(4-Azetidin-1-ylpiperidin-1-yl)carbonyl]amino}pyridin-4-yl)oxy]-2-fluorophenyl}-N′-(4-fluorophenyl)cyclopropane-1,1-dicarboxamide] | 26 | 53 |
| O=C(Nc1cc(Oc2ccc(NC(=O)C3(C(=O)Nc4ccc(F)cc4)CC3)c(F)c2)ccn1)N1CC(O)C1 [Example 72, N-{2-Fluoro-4-[(2-{[(3-hydroxyazetidin-1-yl)carbonyl]amino}pyridin-4-yl)oxy]phenyl}-N′-(4-fluorophenyl)cyclopropane-1,1-dicarboxamide] | 22 | 10 |
| O=C(Nc1cc(Oc2ccc(NC(=O)C3(C(=O)Nc4ccc(F)cc4)CC3)cc2F)ccn1)N1CCCC1 [Example 66, N-(4-Fluorophenyl)-N′-[3-fluoro-4-({2-[(pyrrolidin-1-ylcarbonyl)amino]pyridin-4-yl}oxy)phenyl]cyclopropane-1,1′-dicarboxamide] | 31 | 20 |
| CN1CCC(N2CCN(C(=O)Nc3cc(Oc4ccc(NC(=O)C5(C(=O)Nc6ccc(F)cc6)CC5)c(F)c4)ccn3)CC2)CC1 [Example 16, N-(2-Fluoro-4-{[2-({[4-(1-methylpiperidin-4-yl)piperazin-1-yl]carbonyl}amino)pyridin-4-yl]oxy}phenyl)-N′-(4-fluorophenyl)cyclopropane-1,1-dicarboxamide] | 17 | 64 |
| CN1CCN(C2CCN(C(=O)Nc3cc(Oc4ccc(NC(=O)C5(C(=O)Nc6ccccc6)CC5)c(F)c4)ccn3)CC2)CC1 [Example 54, N-(2-Fluoro-4-{[2-({[4-(4-methylpiperazin-1-yl)piperidin-1-yl]carbonyl}amino)pyridin-4-yl]oxy}phenyl)-N′-phenylcyclopropane-1,1-dicarboxamide] | 20 | 64 |
| CN(C)C1CN(C2CCN(C(=O)Nc3cc(Oc4ccc(NC(=O)C5(C(=O)Nc6ccc(F)cc6)CC5)cc4)ccn3)CC2)C1 [Example 38, N-[4-({2-[({4-[3-(Dimethylamino)azetidin-1-yl]piperidin-1-yl}carbonyl)amino]pyridin-4-yl}oxy)phenyl]-N′-(4-fluorophenyl)cyclopropane-1,1-dicarboxamide] | 52 | 52 |
| O=C(Nc1cc(Oc2ccc(NC(=O)C3(C(=O)Nc4ccc(F)cc4)CC3)cc2F)ccn1)N1CCOCC1 [Example 67, N-[3-Fluoro-4-({2-[(morpholin-4-ylcarbonyl)amino]pyridin-4-yl}oxy)phenyl]-N′-(4-fluorophenyl)-cyclopropane-1,1-dicarboxamide] | 52 | 17 |
| CN(C)[C@@H]1CCN(C(=O)Nc2cc(Oc3ccc(NC(=O)C4(C(=O)Nc5ccccc5)CC4)c(F)c3)ccn2)C1 [Example 59, N-(4-{[2-({[(3R)-3-(Dimethylamino)pyrrolidin-1-yl]carbonyl}amino)pyridin-4-yl]oxy}-2-fluorophenyl)-N′-phenylcyclopropane-1,1-dicarboxamide] | 44 | 75 |
| CN(C)C1CCN(C(=O)Nc2cc(Oc3cc(F)c(NC(=O)C4(C(=O)Nc5ccc(F)cc5)CC4)cc3F)ccn2)CC1 [Example 103, N-(4-{[2-({[4-(Dimethylamino)piperidin-1-yl]carbonyl}amino)pyridin-4-yl]oxy}-2,5-difluorophenyl)-N′-(4-fluorophenyl)cyclopropane-1,1-dicarboxamide] | 5.8 | 57 |
| CN(C)CC1CN(C(=O)Nc2cc(Oc3ccc(NC(=O)C4(C(=O)Nc5ccc(F)cc5)CC4)c(F)c3)ccn2)C1 [Example 77, N-[4-({2-[({3-[(Dimethylamino)methyl]azetidin-1-yl}carbonyl)amino]pyridin-4-yl}oxy)-2-fluorophenyl]-N′-(4-fluorophenyl)cyclopropane-1,1-dicarboxamide] | 19 | 58 |
| CN(C)[C@H]1CCN(C(=O)Nc2cc(Oc3ccc(NC(=O)C4(C(=O)Nc5ccc(F)cc5)CC4)cc3)ccn2)C1 [Example 41, N-(4-{[2-({[(3S)-3-(Dimethylamino)pyrrolidin-1-yl]carbonyl}amino)pyridin-4-yl]oxy}phenyl)-N′-(4-fluorophenyl)cyclopropane-1,1-dicarboxamide] | 42 | 44 |
| CCN(CC)CCCN(C)C(=O)Nc1cc(Oc2ccc(NC(=O)C3(C(=O)Nc4ccc(F)cc4)CC3)cc2F)ccn1 [Example 44, N-(4-{[2-({[[3-(Diethylamino)propyl](methyl)amino]carbonyl}amino)pyridin-4-yl]oxy}-3-fluorophenyl)-N′-(4-fluorophenyl)cyclopropane-1,1-dicarboxamide] | 54 | 91 |
| CN1CCC(N2CCN(C(=O)Nc3cc(Oc4ccc(NC(=O)C5(C(=O)Nc6ccc(F)cc6)CC5)cc4)ccn3)CC2)CC1 [Example 31, N-(4-Fluorophenyl)-N′-(4-{[2-({[4-(1-methylpiperidin-4-yl)piperazin-1-yl]carbonyl}amino)pyridin-4-yl]oxy}phenyl)cyclopropane-1,1-dicarboxamide] | 31 | 62 |
| CN(C)[C@H]1CCN(C(=O)Nc2cc(Oc3ccc(NC(=O)C4(C(=O)Nc5ccc(F)cc5)CC4)cc3F)ccn2)C1 [Example 24, N-(4-{[2-({[(3S)-3-(Dimethylamino)pyrrolidin-1-yl]carbonyl}amino)pyridin-4-yl]oxy}-3-fluorophenyl)-N′-(4-fluorophenyl)cyclopropane-1,1-dicarboxamide] | 17 | 48 |
| O=C(Nc1cc(Oc2ccc(NC(=O)C3(C(=O)Nc4ccc(F)cc4)CC3)cc2F)ncn1)N1CCC(N2CCC2)CC1 [Example 34, N-{4-[(6-{[(4-Azetidin-1-ylpiperidin-1-yl)carbonyl]amino}pyrimidin-4-yl)oxy]-3-fluorophenyl}-N′-(4-fluorophenyl)cyclopropane-1,1-dicarboxamide] | 190 | 73 |
